Results published in ChEMBL document CHEMBL5608208, “Design, synthesis of griseofamine A derivatives and development of potent antibacterial agents against MRSA” (Eur J Med Chem, 2024).
≈ marks a conversion by molar mass, not a printed value.

Columns and labels:
Format in all cases: functional
[1] = test system: Staphylococcus aureus; test: Antibacterial activity against Staphylococcus aureus ATCC 29213 incubated for 18 hrs by serial two-fold dilution method
[2] = test system: Staphylococcus aureus; test: Antibacterial activity against methicillin resistant Staphylococcus aureus ATCC 33592 incubated for 18 hrs by serial two-fold dilution method
[3] = test system: Staphylococcus epidermidis; test: Antibacterial activity against Staphylococcus epidermidis ATCC 12228 incubated for 18 hrs by serial two-fold dilution method
[4] = test system: Staphylococcus aureus; test: Antibacterial activity against methicillin resistant Staphylococcus aureus ATCC 43300 incubated for 18 hrs by serial two-fold dilution method

SMILES | MIC [1] [µg/mL] | MIC [2] [µg/mL] | MIC [3] [µg/mL] | MIC [4] [µg/mL]
COc1ccc([C@H]2c3[nH]c4ccccc4c3C[C@H]3C(=O)/C(=C(\C)O)C(=O)N23)cc1 | 8 (≈ 20.6 µM) |  |  | 
C/C(O)=C1\C(=O)[C@@H]2Cc3c([nH]c4ccccc34)[C@@H](c3ccc(-c4cc(C(F)(F)F)cc(C(F)(F)F)c4)cc3)N2C1=O | 1 (≈ 1.75 µM) | 1 (≈ 1.75 µM) | 1 (≈ 1.75 µM) | 
C/C(O)=C1\C(=O)[C@@H]2Cc3c([nH]c4ccccc34)[C@@H](c3ccc(-c4ccc(C)cc4)cc3)N2C1=O | 0.125 (≈ 0.279 µM) | 0.25 (≈ 0.557 µM) | 0.25 (≈ 0.557 µM) | 0.125 (≈ 0.279 µM)
CCc1ccc(-c2ccc([C@@H]3c4[nH]c5ccccc5c4C[C@H]4C(=O)/C(=C(\C)O)C(=O)N34)cc2)cc1 | 0.5 (≈ 1.08 µM) | 0.25 (≈ 0.54 µM) | 0.25 (≈ 0.54 µM) | 0.25 (≈ 0.54 µM)
COc1ccc([C@@H]2c3[nH]c4ccccc4c3C[C@H]3C(=O)/C(=C(\C)O)C(=O)N23)cc1 | 4 (≈ 10.3 µM) |  |  | 
C/C(O)=C1\C(=O)[C@@H]2Cc3c([nH]c4ccccc34)[C@@H](c3ccc(-c4ccccc4F)cc3)N2C1=O | 0.125 (≈ 0.276 µM) | 0.25 (≈ 0.553 µM) | 0.25 (≈ 0.553 µM) | 0.25 (≈ 0.553 µM)
C/C(O)=C1\C(=O)[C@@H]2Cc3c([nH]c4ccccc34)[C@@H](c3ccc(-c4ccccc4C)cc3)N2C1=O | 0.125 (≈ 0.279 µM) | 0.25 (≈ 0.557 µM) | 0.5 (≈ 1.11 µM) | 
C/C(O)=C1\C(=O)[C@@H]2Cc3c([nH]c4ccccc34)[C@H](c3ccc(C(F)(F)F)cc3)N2C1=O | 16 (≈ 37.5 µM) |  |  | 
C/C(O)=C1\C(=O)[C@@H]2Cc3c([nH]c4ccccc34)[C@@H](c3ccccn3)N2C1=O | 64 (≈ 178 µM) |  |  | 
O=C1CC(=O)N2[C@H](c3ccc(-c4ccc(F)cc4)cc3)c3[nH]c4ccccc4c3C[C@@H]12 | > 4 | > 4 | > 4 | 
COC(=O)[C@@H]1Cc2c([nH]c3ccccc23)[C@@H](C)N1 | > 128 |  |  | 
C/C(O)=C1\C(=O)[C@@H]2Cc3c(n(CC4CC4)c4ccccc34)[C@@H](c3ccc(-c4ccc(F)cc4)cc3)N2C1=O | 0.125 (≈ 0.247 µM) | 0.125 (≈ 0.247 µM) | 0.25 (≈ 0.494 µM) | 0.125 (≈ 0.247 µM)
O=C1CC(=O)N2[C@H](c3ccc(-c4ccc(OC(F)(F)F)cc4)cc3)c3[nH]c4ccccc4c3C[C@@H]12 | > 4 | > 4 | > 4 | 
C/C(O)=C1\C(=O)[C@@H]2Cc3c([nH]c4ccccc34)[C@@H](c3ccc(-c4ccc(F)cc4)o3)N2C1=O | 0.5 (≈ 1.13 µM) | 0.5 (≈ 1.13 µM) | 0.5 (≈ 1.13 µM) | 0.5 (≈ 1.13 µM)
C/C(O)=C1\C(=O)[C@@H]2Cc3c([nH]c4ccccc34)[C@@H](c3ccc(-c4ccc(F)cc4F)cc3)N2C1=O | 0.125 (≈ 0.266 µM) | 0.25 (≈ 0.531 µM) | 0.25 (≈ 0.531 µM) | 0.125 (≈ 0.266 µM)
O=C1CC(=O)N2[C@H](c3ccc(-c4cc(F)cc(F)c4)cc3)c3[nH]c4ccccc4c3C[C@@H]12 | > 4 | 4 (≈ 9.34 µM) | > 4 | 
CCC(=O)OC1=CC(=O)N2[C@H](c3ccc(-c4cc(F)cc(F)c4)cc3)c3[nH]c4ccccc4c3C[C@@H]12 | > 4 | > 4 | > 4 | 
O=C1/C(=C(/O)c2ccccc2)C(=O)N2[C@H](c3ccc(-c4cc(F)cc(F)c4)cc3)c3[nH]c4ccccc4c3C[C@@H]12 | 0.25 (≈ 0.469 µM) | 0.125 (≈ 0.235 µM) | 0.25 (≈ 0.469 µM) | 0.125 (≈ 0.235 µM)
C/C(O)=C1\C(=O)[C@@H]2Cc3c([nH]c4ccccc34)[C@@H](c3ccc(F)cc3)N2C1=O | 4 (≈ 10.6 µM) |  |  | 
CC[C@@H]1c2[nH]c3ccccc3c2C[C@H]2C(=O)/C(=C(\C)O)C(=O)N12 | > 128 |  |  | 
C/C(O)=C1\C(=O)[C@@H]2Cc3c([nH]c4ccccc34)[C@@H](c3ccc(-c4ccc(C(F)(F)F)cc4)cc3)N2C1=O | 0.063 (≈ 0.125 µM) | 0.25 (≈ 0.498 µM) | 0.063 (≈ 0.125 µM) | 
C/C(O)=C1\C(=O)[C@@H]2Cc3c([nH]c4ccccc34)[C@@H](c3ccc(-c4cccc(F)c4)cc3)N2C1=O | 0.125 (≈ 0.276 µM) | 0.25 (≈ 0.553 µM) | 0.25 (≈ 0.553 µM) | 
CC(C)=CCc1cccc2[nH]c3c(c12)C[C@H]1C(=O)/C(=C(\C)O)C(=O)N1[C@@H]3C | 8 (≈ 22 µM) | 8 (≈ 22 µM) | 8 (≈ 22 µM) | 8 (≈ 22 µM)
O=C1CC(=O)N2[C@H](c3ccc(-c4ccc(C(F)(F)F)cc4)cc3)c3[nH]c4ccccc4c3C[C@@H]12 | > 4 | > 4 | 4 (≈ 8.69 µM) | 
O=C(OC1=CC(=O)N2[C@H](c3ccc(-c4cc(F)cc(F)c4)cc3)c3[nH]c4ccccc4c3C[C@@H]12)c1cccs1 | > 4 | > 4 | > 4 | 
C/C(O)=C1\C(=O)[C@@H]2Cc3c(n(S(=O)(=O)c4ccc(C)cc4)c4ccccc34)[C@@H](c3ccc(-c4ccc(C)cc4)cc3)N2C1=O | 8 (≈ 13.3 µM) | 8 (≈ 13.3 µM) | 2 (≈ 3.32 µM) | 
C/C(O)=C1\C(=O)[C@@H]2Cc3c([nH]c4ccccc34)[C@@H](c3ccc4ccccc4c3)N2C1=O | 8 (≈ 19.6 µM) |  |  | 
C/C(O)=C1\C(=O)[C@@H]2Cc3c([nH]c4ccccc34)[C@@H](c3ccc(-c4ccc(F)cc4)cc3)N2C1=O | 0.063 (≈ 0.139 µM) | 0.125 (≈ 0.276 µM) | 0.125 (≈ 0.276 µM) | 
